# Literature values as cited in PMC12643354, “From Oxygen to Tellurium: The Impact of the Chalcogen on Nucleophilicities and Basicities of Isochalcogenourea Catalysts” (Angewandte Chemie (International Ed. in English), 2025).
# Read-outs that look alike come from different tables or passages of the source. Marks after values point to notes of the source that are not given here.
# Legend:
# [1] = parameters: method as in PMID 21568333; settings: (ind)2CH+, E = −8.76, dichloromethane, 20 °C; cited from earlier work
# [2] = parameters: method as in PMID 21568333; settings: (thq)2CH+, E = −8.22, dichloromethane, 20 °C; cited from earlier work
# [3] = parameters: method as in PMID 21568333; settings: (pyr)2CH+, E = −7.69, dichloromethane, 20 °C; cited from earlier work
# [4] = parameters: method as in PMID 21568333; settings: (dma)2CH+, E = −7.02, dichloromethane, 20 °C; cited from earlier work
# [5] = dichloromethane, 20 °C; cited from earlier work
# [6] = in dichloromethane, 20 °C; cited from earlier work
# [7] = in methanolic aqueous solution (1:5-mixture); cited from earlier work
compound,measurement,setting,value
"c1ccc2c(c1)SC1=NCCCN12 [ITU3, DHPB]",Second-order rate constant k2 exptl,[1],1.11 × 10^4 ^a) L mol^−1 s^−1
same,Second-order rate constant k2 exptl,[2],2.07 × 10^4 ^a) L mol^−1 s^−1
same,Second-order rate constant k2 exptl,[3],7.49 × 10^4 ^a) L mol^−1 s^−1
same,Second-order rate constant k2 exptl,[4],2.29 × 10^5 ^a) L mol^−1 s^−1
same,Nucleophile-specific sensitivity parameter sN,[5],0.78
same,Nucleophilicity parameter N,[5],13.86
same,Lewis basicity LB,[6],15.39
same,Brønsted basicity pKaH(H2O),[7],9.9 ^c)
